One substance from patent US20260174839A1, “PN[…] OTHER VACCINES P[…] SAPONIN ADJUVANT” (priority 2022, published 2026) can be followed below.

Holding throughout (type): in vivo
Experiment [1] concerns Streptococcus pneumoniae serotype 14. Description: Opsonophagocytosis assay of serum of immunized mice, serotype 14. The settings on record: adjuvant added to PCV13 vs PCV13 alone; BALB/c mice. As to the method:
(§1) BALB/c mice used in this study were purchased from the Jackson Laboratory and maintained within an environmentally controlled, pathogen-free animal facility at the University of Alabama at Birmingham (UAB). Each human dose of PCV13 (trade name Prevnar 13 by Pfizer) is available in 0.5 mL single-dose pre-filled syringes. Groups of female BALB/c mice (8-10 weeks of age, six per group) were immunized via the subcutaneous route (s.c.) with saline, PCV 13 (50 μL), PCV13 (50 μL) plus QS-21 (20 μg), or PCV13 (50 μL) plus VSA-1 (100 μg) on days 0, 14 and 28. Serum samples were collected prior to the first immunization and at 2 weeks following the last immunization. Equal volumes of the six sera in each group were pooled together to create serum pools for each group. The serum was obtained after centrifugation and stored at −20° C. until assayed. All studies were performed according to National Institutes of Health guidelines, and protocols were approved by the UAB Institutional Animal Care and Use Committee.
(§2) Opsonophagocytosis assay for serotypes 3, 4, 6B, 9V, 14, 19A, and 19F was performed using a 4-fold multiplexed opsonization assay described in the literature. […] Opsonic indices were determined as the interpolated serum dilution that kills 50% of bacteria. […]

Experiment [2] concerns Streptococcus pneumoniae serotype 9V. Description: Opsonophagocytosis assay of serum of immunized mice, serotype 9V. The settings on record: PCV13 plus QS-21 vs PCV13 plus VSA-1. As to the method:
as §1, §2

Experiment [3] relates to Streptococcus pneumoniae serotype 19F. Description: Opsonophagocytosis assay of serum of immunized mice, serotype 19F. The note with it: PCV13 plus QS-21 vs PCV13 plus VSA-1. As to the method:
as §1, §2

Experiment [4] relates to Streptococcus pneumoniae serotype 3. The experiment in a line: Opsonophagocytosis assay of serum of immunized mice, serotype 3. The note with it: PCV13 plus QS-21 vs PCV13 plus VSA-1. On the procedure: as §1, §2
The subject of experiment [5] is Streptococcus pneumoniae serotypes 3, 4, 6B, 9V, 14, 19A, and 19F. The experiment in a line: Opsonophagocytosis assay, several serotypes together. The note with it: adjuvant added to PCV13 vs PCV13 alone, BALB/c mice. On the procedure: as §1, §2
For experiment [6], the system named is Streptococcus pneumoniae seven serotypes (3, 4, 6B, 9V, 14, 19A and 19F). The experiment in a line: IgG subclass pneumococcal antibody ELISA, seven serotypes together (average, summary). The note with it: adjuvant added to PCV13; BALB/c mice. As to the method:
Four groups of female BALB/c mice (6 per group) were immunized with normal saline, one tenth human dose of PCV13, PCV13+VSA-1, and PCV13-QS21 on days 0, 14 […]. QS21 is another saponin adjuvant. Blood samples were obtained on day 42. IgG subclass of pneumococcal antibodies in the pooled serum samples of each group were determined with pneumococcal antibody ELISA for seven serotypes (3, 4, 6B, 9V, 14, 19A and 19F) using enzyme-conjugated antibodies against mouse IgG1, IgG2a or IgG3.
On the technique in general: An ELISA detects its analyte on a solid surface through an enzyme-linked reagent.

As for QS-21, the “increase of PCV13-induced opsonic titers, serotype 14” value in experiment [1] is 14.9 fold. Further, in experiment [2], the “opsonic titer, QS-21 superior to VSA-1, serotype 9V” value came out at 2.4 fold. Moreover, the “opsonic titer, QS-21 superior to VSA-1, serotype 19F” value in experiment [3] was determined as 1.2 fold. The “opsonic titer, QS-21 superior to VSA-1, serotype 3” value in experiment [4] amounted to 1.3 fold. In addition, the “increase of PCV13-induced opsonic titers” value in experiment [5] is listed as 1.9-4.9 fold. Also, the “IgG1, IgG2a and IgG3 antibodies titers against seven selected serotypes” value in experiment [6] is on record as “boosted”.
